Consider two compounds from patent publication US20230108049A1, “ORAL FAST-DISPERSING DOSAGE FORM OF RIMEGEPANT” (BIOHAVEN PHARMACEUTICAL HOLDING COMPANY LTD., priority 2020, published 2023).

The nature of series [1]: Excretion after oral [14C]-rimegepant. The format is in vivo, human. The conditions noted are these: oral, healthy male subjects. An excerpt:
Following oral administration of [^14C]-rimegepant to healthy male subjects, 78% of the total radioactivity was recovered in feces and 24% in urine. Unchanged rimegepant is the major single component in excreted feces (42%) and urine (51%).

Another series is described as follows: Solubility in water. The series is classed as physicochemical. The conditions noted are these: white to off-white crystalline solid.

Regarding `N[C@@H]1c2cccnc2[C@H](OC(=O)N2CCC(n3c(=O)[nH]c4ncccc43)CC2)CC[C@H]1c1cccc(F)c1F` [[^14C]-rimegepant], in series [1], the “total radioactivity recovered in feces” value was 78% and the “total radioactivity recovered in urine” value is reported as 24%.
As to `N[C@@H]1c2cccnc2[C@H](OC(=O)N2CCC(n3c(=O)[nH]c4ncccc43)CC2)CC[C@H]1c1cccc(F)c1F` [rimegepant hemisulfate, (5S,6S,9R)-5-amino-6-(2,3-difluorophenyl)-6,7,8,9-tetrahydro-5H-cyclohepta[b]pyridin-9-yl 4-(2-oxo-2,3-dihydro-1H-imidazo[4,5-b]pyridin-1-yl)-1-piperidinecarboxylate hemisulfate sesquihydrate], the solubility in water entry in “Solubility in water” is given as “slightly soluble in water”.
